Laboratory results taken from US10278942B2 (PELOTON THERAPEUTICS, INC., priority 2015, dated 2019).
Read-outs that look alike come from different tables or passages of the source. One block for each molecule: values may come before it.

Tests used:
[1] = tested on: rats with hypoxia/semaxanib induced pulmonary arterial hypertension; test: Prevention of PAH by a HIF-2α inhibitor (Example 36)
Procedure: Two rats not exposed to either semaxanib or hypoxia served as hypertrophic sentinels for this study. Rats received a single injection of semaxanib (200 mg/kg, s.c.) on the same day as initiation of test article dosing and introduction to the hypoxic chamber. Rats were kept in hypoxic conditions for the duration of this study. On the twenty-eighth day of test article dosing, the rats were anesthetized with ketamine/xylazine for terminal monitoring of pulmonary and systemic arterial pressures along with heart rate. […]

[2] = tested on: rats with hypoxia/semaxanib induced pulmonary arterial hypertension; test: Effect of HIF-2α inhibition in a model of active PAH (Example 37, interventional)
Source text: Rats were kept in hypoxic conditions for the duration of this study. On the fourteenth day of test article dosing, the rats were anesthetized with ketamine/xylazine for terminal monitoring of pulmonary and systemic arterial pressures along with heart rate. […]

[3] = target: T1, HIF-2α HIS TAG-PASB Domain (Homo sapiens, UniProt Q99814); test: HIF-2α Scintillation Proximity Assay (SPA); format: binding
T1 construct: 100 nM HIF-2α HIS TAG-PASB Domain
Method in brief: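 IC50 values rest on percent inhibition, where the sample signal is scaled between high and low controls. Wells contain about 100 μL: compound dispensed as 2 μL of DMSO solution, 88 μL protein-probe mix and 10 μL of beads.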

786-O cells = test: VEGF ELISA Assay; format: cell-based; settings: Homo sapiens, 786-0
Procedure: Each concentration was plated in duplicate. About 20 hours later, medium was removed by suction and each well was supplied with 180 μL of growth medium. About 20 μl freshly-made 10× compound stocks were added to each well. […] The EC50 was calculated by GraphPad Prism using the dose-response-inhibition (four parameter) equation. The cell-seeded plate was then subjected to CellTiter-Glo luminescence cell viability assay (Promega) by adding 50 μL of Celltiter Glo reagent into each well and shaking the plate for 8 minutes at 550 rpm (Thermomixer R, Eppendorf) then the luminescence signal immediately read in a plate reader (3 second delay, 0.5 second/well integration time, Synergy 2 multi Detection Microplate reader).

786-O-Hif-Luc cells = test: Luciferase Assay (HIF responsive elements reporter)
Procedure: A pool of infected cells were then selected against 2 μg/mL of puromycin (P8833, Sigma) for 10 days followed by limited dilution to select single clones. […] Each concentration was tested in triplicate. After about 24 hours, luciferase activity was determined using ONE-Glo Luciferase Assay Reagent (E6110, Promega) following the manufacturer's recommended procedure. EC50 were calculated using Dotmatics software.

[4] = prevention, 60/day bid oral 28 days, Mean ± SEM
[5] = prevention, Group 4, 30 mg/kg BID
[6] = active PAH, 60/day bid oral Days 15 to 28, Mean ± SEM
[7] = active PAH, Group 4, 60 mg/kg/day 14 days
[8] = read-out: Scintillation Proximity Assay IC50
[9] = read-out: Mean Luciferase EC50 (nM), 786-O-Hif-Luc cells

T1 sequence (Q99814 240-350 limits assumed): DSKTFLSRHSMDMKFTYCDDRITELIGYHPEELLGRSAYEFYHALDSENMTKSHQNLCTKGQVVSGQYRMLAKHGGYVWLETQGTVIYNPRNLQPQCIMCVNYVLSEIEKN

Compound: CCCc1nn(C)c2c(=O)[nH]c(-c3cc(S(=O)(=O)N4CCN(C)CC4)ccc3OCC)nc12 [sildenafil]
RV/LV + S ([1]; Fulton's Index, prevention, 60/day bid oral 28 days, Mean ± SEM): 0.52 ± 0.04 | Heart Wt [1, 4]: 1.23 ± 0.03 g | LV Wt [1, 4]: 0.71 ± 0.02 g | Lung Wt [1, 4]: 2.39 ± 0.07 g | MAP [1, 4]: 92 ± 2 mm Hg | Mean PAP [1, 4]: 38 ± 3 mm Hg | RV Wt [1, 4]: 0.36 ± 0.03 g | RV/BW [1, 4]: 1.12 ± 0.10 | Systolic PAP [1, 4]: 55 ± 5 mm Hg | mean percentages of completely muscularized arterioles [1, 5]: 58.7% | mean percentages of non-muscularized arterioles [1, 5]: 1.1% | mean percentages of partially muscularized arterioles [1, 5]: 40.2% | Group mean scores for smooth muscle hypertrophy ([1]; prevention, Group 4, 30 mg/kg BID, lung histopathology): 3.4 | pulmonary arteriolar smooth muscle hypertrophy compared to vehicle ([1]; prevention, histopathology evaluation and arteriole counts): slight decrease | protection versus vehicle (systolic pulmonary arterial pressure) ([1]; prevention, sildenafil group): showed protection versus vehicle | heart rate compared to vehicle ([1]; rat, in vivo): No notable differences | HR ([1]; rat, in vivo, po): 289 ± 11 bpm | Heart Wt [2, 6]: 1.25 g | LV Wt [2, 6]: 0.75 g | LW/BW [2, 6]: 6.68 | Lung Wt [2, 6]: 2.36 g | MAP [2, 6]: 93 mm Hg | Mean PAP [2, 6]: 36 mm Hg | RV Wt [2, 6]: 0.35 g | RV/BW [2, 6]: 0.98 | RV/LV + S [2, 6]: 0.46 | Systolic PAP [2, 6]: 56 mm Hg | Group mean scores for smooth muscle hypertrophy [2, 7]: 2.6 | mean percentages of completely muscularized arterioles [2, 7]: 47.2% | mean percentages of non-muscularized arterioles [2, 7]: 1.1% | mean percentages of partially muscularized arterioles [2, 7]: 51.7% | pulmonary hypertrophy ([2]; active PAH, compared to vehicle): reductions in pulmonary hypertrophy | reduction in RV/BW ratio ([2]; active PAH, sildenafil 30 mg/kg twice daily, p<0.05): 21% | heart rate compared to vehicle ([2]; rat, in vivo): No substantive differences | Body Weight ([2]; rat, in vivo, po): 0.35 kg | HR ([2]; rat, in vivo, po): 298 bpm

IC50 [3, 8]: < 50 nM | EC50 (786-O cells): < 50 nM | EC50 (786-O-Hif-Luc cells; [9]): < 50 nM
Compound: O[C@H]1c2c(C(F)(F)F)ccc(OCC(F)F)c2CC1(F)F [Compound 579]

IC50 [3, 8]: < 50 nM | EC50 (786-O cells): 50 to 249 nM | EC50 (786-O-Hif-Luc cells; [9]): < 50 nM
Compound: N#Cc1cncc(Oc2ccc(C(F)(F)F)c3c2CC(F)(F)[C@H]3O)c1 [Compound 303]

IC50 [3, 8]: 50 to 249 nM | EC50 (786-O cells): 50 to 249 nM | EC50 (786-O-Hif-Luc cells; [9]): 50 to 249 nM
Compound: O=S(=O)(c1ccc(OCCF)c2c1[C@H](O)C(F)(F)C2)C(F)(F)F [Compound 706]

IC50 [3, 8]: < 50 nM | EC50 (786-O cells): < 50 nM | EC50 (786-O-Hif-Luc cells; [9]): < 50 nM
Compound: O=S(=O)(c1ccc(OC2CCCCC2)c2c1C(O)C(F)(F)C2)C(F)(F)F (stereo not drawn) [Compound 617]

Compound: O=S1(=O)c2ccc(Oc3cc(F)cc(Cl)c3)c(C(F)(F)F)c2C(O)C1(F)F (stereo not drawn) [Compound 360]
IC50 ([3]; Scintillation Proximity Assay IC50 (nM)): < 50 nM | EC50 (786-O cells): 50 to 249 nM | EC50 (786-O-Hif-Luc cells; read-out: Mean Luciferase EC50 (nM)): 50 to 249 nM

IC50 [3, 8]: < 50 nM | EC50 (786-O cells): 50 to 249 nM | EC50 (786-O-Hif-Luc cells; [9]): < 50 nM
Compound: O=S(=O)(c1ccc(OC2CCOCC2)c2c1[C@H](O)C(F)(F)C2)C(F)F [Compound 783]

IC50 [3, 8]: < 50 nM | EC50 (786-O cells): 50 to 249 nM | EC50 (786-O-Hif-Luc cells; [9]): 50 to 249 nM
Compound: CS(=O)(=NC#N)c1ccc(Oc2cc(F)cc(C#N)c2)c2c1[C@H](O)C(F)(F)C2 (stereo partly drawn) [Compound 245]

IC50 [3, 8]: < 50 nM | EC50 (786-O cells): 250 to 1000 nM | EC50 (786-O-Hif-Luc cells; [9]): 250 to 1000 nM
Compound: N#Cc1cc(F)cc(Oc2ccc(S(=O)(=O)C(F)F)c(CO)c2Br)c1 [Compound 80]

IC50 [3, 8]: < 50 nM | EC50 (786-O cells): 50 to 249 nM | EC50 (786-O-Hif-Luc cells; [9]): 50 to 249 nM
Compound: O=S(=O)(c1ccc(Oc2cc(F)cc(F)c2)c2c1[C@H](O)CC2)C(F)F [Compound 2]

IC50 [3, 8]: < 50 nM | EC50 (786-O cells): < 50 nM | EC50 (786-O-Hif-Luc cells; [9]): < 50 nM
Compound: O=S(=O)(c1ccc(Oc2cc(F)cc(F)c2)c2c1[C@H](O)CC2)C(F)(F)F [Compound 55]

IC50 [3, 8]: < 50 nM | EC50 (786-O cells): 50 to 249 nM | EC50 (786-O-Hif-Luc cells; [9]): 50 to 249 nM
Compound: CC(C)(C#N)COc1ccc(S(=O)(=O)C(F)(F)F)c2c1CC(F)(F)C2O (stereo not drawn) [Compound 610]

IC50 [3, 8]: < 50 nM | EC50 (786-O cells): < 50 nM | EC50 (786-O-Hif-Luc cells; [9]): < 50 nM
Compound: N#CC1(COc2ccc(S(=O)(=O)C(F)(F)F)c3c2CC(F)(F)[C@H]3O)CC1 [Compound 658]

Compound: O=S(=O)(CF)c1ccc(OC2CC(F)(F)C2)c2c1[C@H](O)C(F)(F)[C@@H]2F [Compound 576, (1S,3R)-4-(3,3-difluorocyclobutoxy)-2,2,3-trifluoro-7-((fluoromethyl)sulfonyl)-2,3-dihydro-1H-inden-1-ol]
IC50 [3, 8]: < 50 nM | EC50 (786-O cells): 50 to 249 nM | EC50 (786-O-Hif-Luc cells; [9]): < 50 nM

IC50 [3, 8]: < 50 nM | EC50 (786-O cells): < 50 nM | EC50 (786-O-Hif-Luc cells; [9]): < 50 nM
Compound: CCCOc1ccc(S(=O)(=O)C(F)(F)F)c2c1CC(F)(F)[C@H]2O [Compound 655]

IC50 [3, 8]: < 50 nM | EC50 (786-O cells): < 50 nM | EC50 (786-O-Hif-Luc cells; [9]): < 50 nM
Compound: N#Cc1cccc(Oc2ccc(S(=O)(=O)C(F)F)c3c2CC(F)(F)[C@H]3O)c1 [Compound 236]
